Results: EP0090736A1, “Steroidal nitroso ureum with oncostatic activity, process for its preparation and its use as a medicine” (Etablissement Public dit: CENTRE NATIONAL DE LA RECHERCHE …, priority 1982, dated 1983)

What was measured:
leucémie L1210 = assay: Oncostatic activity on L1210 leukemia in mice (survival T/C); type: in vivo, souris (DBA2 - C57BL 100); details: for Dose optimale: L1210 leukemia, 10^5 cells i.p., treatment on days 1, 5 and 9, suspension in olive oil
Source text: Le composé selon la présente invention a été étudié sur la leucémie L1210 en comparaison avec d'autres nitrosourées présentant également des propriétés oncostatiques. Il s'agit essentiellement de la BCNU, la CCNU, la Me CCNU, la RFCNU, la RPCNU et la Chlorozotocine. Ces composés, ainsi que le XPCNU, sont bien connus et décrits par exemple dans Biomedicine Express, vol. 23, n° 10 du 10 décembre 1975, pages 410-413.
Pour chaque composé, 10^5 cellules leucémiques ont été inoculées à 80 souris (DBA2 - C57BL 100), par voie intrapéritonéale.
Les traitements ont débuté un jour après la transplantation et ont été poursuivis les cinquième et neuvième jours. Les dérivés devant être testés sont administrés en suspension dans l'huile d'olive à 70 souris. Les doses injectées sont variables, chaque souris étant pesée individuellement. Les 10 souris restantes constituent le groupe témoin et reçoivent, en placébo, des volumes équivalents d'huile d'olive.
Le premier jour, les nitrosourées testées sont administrées, en doses variables, aux souris traitées.
Les cinquième et neuvième jours, les injections sont renouvelées sans signe macroscopique de toxicité.
Pour chaque composé, les activités oncostatiques ont été déterminées pour une dose spécifique et varient en fonction de la quantité administrée. Lorsque l'activité oncostatique est supérieure à 125 et si la différence des groupes témoins et traités à une signification statistique (test de WILCOXON), le composé est considéré comme étant actif à la dose utilisée.
La figure ci-annexée indique en fonction des doses de principe actif appliquées en milligramme par kilogramme le rapport T/C défini comme suit : T/C = moyenne de survie des groupes traités / moyenne de survie des groupes témoins x 100
La mention ∞ indique que plus de 50 % des animaux traités sont guéris.

Acute toxicity (DL50) = type: in vivo
Procedure: On a, en outre, indiqué ci-après dans le tableau pour les composés connus et pour le composé selon la présente invention les MEDI, c'est-à-dire les doses médianes, les doses optimums les DL50 et par là l'index thérapeutique de ces composés.
On constate qu'à l'activité déterminée précédemment s'ajoute la dose médiane la plus grande jamais observée et une DL50 aiguë de 700 mg/kg qui est la plus avantageuse parmi toutes les autres nitrosourées, ce qui conduit à l'indice thérapeutique le plus élevé jamais obtenu jusqu'à présent pour ce type de composé oncostatique.

[1] = derived from DL50 and optimal dose on L1210

SMILES | Dose optimale (leucémie L1210) [mg/kg] | DL50 (Acute toxicity (DL50); acute DL50) [mg/kg] | Index thérapeutique (Acute toxicity (DL50); [1]) | activité oncostatique (T/C) (leucémie L1210; T/C = mean survival treated / mean survival controls x 100, as a function of dose (figure), compared with other nitrosoureas) | LD50 (Acute toxicity (DL50); in vivo, acute DL50) [mg/kg] | selectivity ratio (Acute toxicity (DL50); mouse, in vivo, derived from DL50 and optimal dose on L1210, read-out: Index thérapeutique)
O=NN(CCCl)C(=O)N[C@H]1C(O)O[C@H](CO)[C@@H](O)[C@@H]1O (some centres unmarked) [CZT, Chlorozotocine] | 15 | 35 | 2,33 | – | – | –
C[C@]12CC[C@H]3[C@@H](CC=C4C[C@@H](O)CC[C@@]43C)[C@@H]1CC[C@@H]2NC(=O)N(CCCl)N=O [Composé ex. 1, 17β-(N-2-chloroéthyl-N'-nitrosouréyl)-5-androsten-3β-ol] | 125 | – | – | la meilleure activité oncostatique | 700 | 5.6
CC1(C)O[C@@H]2[C@@H](COC(=O)c3ccc([N+](=O)[O-])cc3)OC(NC(=O)N(CCCl)N=O)[C@@H]2O1 (some centres unmarked) [RFCNU] | 20 | 90 | 4,5 | – | – | –
CC(=O)O[C@@H]1[C@H](OC(C)=O)COC(NC(=O)N(CCCl)N=O)[C@@H]1OC(C)=O (some centres unmarked) [RPCNU] | 15 | 50 | 3,3 | – | – | –
CC(=O)OC1COC(NC(=O)N(CCCl)N=O)C(OC(C)=O)C1OC(C)=O (centres unmarked) [XPCNU] | 15 | – | – | – | – | –
